Laboratory results: paper PMC5609566, “Elucidation of antimicrobial activity and mechanism of action by N-substituted carbazole derivatives” (Bioorganic & Medicinal Chemistry Letters, 2017)
Values after ≈ are worked out from the molar mass of the structure shown. Where two headings read alike, the source gives them in different places.

What was measured:
S. cerevisiae H^+-ATPase = target: T1, S. cerevisiae H^+-ATPase (Saccharomyces cerevisiae, UniProt P05030); test: Colorimetric ATPase assay (ATP hydrolysis), S. cerevisiae plasma membranes; format: biochemical; settings: pH 7, n = 3
T1 construct: transformed with the full-length cDNA of the S. cerevisiae plasma membrane H^+-ATPase isoform PMA1; made in house; host or cells: S. cerevisiae RS72
Text: (§1) To investigate the H^+-ATPase inhibitory effect of the compounds we isolated plasma membranes containing H^+-ATPase from S. cerevisiae and C. albicans cells.[15] Plasma membranes isolated from pig kidney as well as endoplasmic reticulum membranes from rabbit hind leg muscle were used to counter-screen compounds for activity against mammalian Na^+,K^+-ATPase and Ca^2+-ATPase, respectively. Prior to their use, fungal plasma membrane batches were validated by determining the maximum ATP hydrolysis activity, the pH optimum of the ATPase activity, and the sensitivity to inhibition by orthovanadate. ATPase activity was determined by a colorimetric assay that measures the amount of inorganic phosphate liberated over time, as described in Kjellerup et al., 2017.[15] Table 2, Table 3, Table 4 list the IC50 values obtained by measuring the concentration dependence of the ATPase activity for the fifteen carbazole compounds with each of the four membrane preparations.
(§2) Pma1-containing plasma membranes were prepared from S. cerevisiae RS72 yeast cells that had been transformed with the full-length cDNA of the S. cerevisiae plasma membrane H^+-ATPase isoform PMA1 under control of the PMA1 promoter, using the same procedure as described in Kongstad et al., 2014^1. For the preparation of C. albicans membranes, a 100 ml overnight culture grown in YPD (10 g/L yeast extract (BD, Sparks, MD), 20 g/L Bacto peptone (BD), 20 g/L D-(+)-glucose) was transferred to 1 L YPD and grown for a further 7 h at RT with agitation (150 rpm), followed by cell harvesting and subsequent membrane preparation using the same procedure as described in Kongstad et al., 2014^1. […] Rabbit sarcoplasmic reticulum membranes containing Sarco/Endoplasmic Reticulum Ca^2+ ATPase (SERCA) were kindly provided by Dr. Claus E. Olesen and Dr. Jesper V. Møller, Aarhus University and prepared as described in Andersen et al., 1985^2. Pig kidney Na^+,K^+-ATPase was kindly provided by Dr. Natalya Fedosova, Aarhus University and prepared as described in Klodos et al., 2002^3.
(§3) The compound libraries were purchased from Enamine Ltd, Ukraine and Chembridge Corp, USA. ATPase activity was determined by measuring the amount of liberated phosphate from ATP hydrolysis. […] Reactions were initiated by the addition of Na-ATP to a final concentration of 2.5 mM (Pma1 and Na^+,K^+-ATPase) or 5 mM (SERCA), followed by 30 minutes incubation at 30 °C. The amount of liberated phosphate was determined colorimetrically after addition of STOP solution (mixture of L-ascorbic acid, ammonium heptamolybdate tetrahydrate, and HCl to give final concentrations of 65 mM, 2.2 mM, and 189 mM, respectively) with 5 minutes incubation at room temperature (RT) followed by addition of arsenite solution (mixture of NaAsO2, sodium citrate dihydrate, and acetic acid to give final concentrations of 3.1 mM, 28 mM, and 141 mM, respectively). Absorption was measured at 860 nm after an additional 30 minutes incubation at RT.

C. albicans H^+-ATPase = target: T2, C. albicans H^+-ATPase (Candida albicans, UniProt P28877); test: Colorimetric ATPase assay (ATP hydrolysis), C. albicans membranes; format: biochemical; settings: pH 7, n = 3
T2 construct: endogenous in cells; host or cells: C. albicans culture grown in YPD; microsomal membrane preparation
Text: as §1, §2, §3

Mammalian Ca^2+-ATPase = target: T3, Mammalian Ca^2+-ATPase (Oryctolagus cuniculus, UniProt P04191); test: Colorimetric ATPase assay, rabbit sarcoplasmic reticulum membranes (SERCA); format: biochemical
T3 construct: from tissue; host or cells: rabbit hind leg muscle, sarcoplasmic reticulum membranes (gift, Aarhus University)
Text: as §1, §2, §3

[1] = target: T4, Mammalian Na^+,K^+-ATPase (Sus scrofa, UniProt P05024); test: Colorimetric ATPase assay, pig kidney membranes; format: biochemical; settings: pH 7, n = 3; read-out: ATP hydrolysis IC50 Mammalian Na^+,K^+-ATPase
T4 construct: from tissue; host or cells: pig kidney plasma membranes (gift, Aarhus University; prepared per Klodos et al., 2002)
Text: as §1, §2, §3

Candida albicans SC5314 = test: Fungal growth inhibition MIC (MFC); format: cell-based; settings: for MIC: Candida albicans SC5314, RPMI-1640; for MFC: Candida albicans SC5314, value in brackets
Text: (§4) We subsequently assessed the carbazole series for antifungal activity, as described in Kjellerup et al., 2017.[15] Table 2, Table 3, Table 4, Table 5 list the minimum inhibitory concentrations (MIC) and the minimum fungicidal concentrations (MFC) of the fifteen compounds tested against the yeasts Saccharomyces cerevisiae, Candida albicans, C. krusei, and two isolates of C. glabrata (a wild-type strain ATCC 90030 and a clinical azole-resistant isolate Cg003 with increased efflux pump expression[19]), and the molds Aspergillus fumigatus and A. flavus. MIC was defined as the lowest concentration inhibiting visual growth of the microorganism in RPMI-1640 media. […] However, in several cases antifungal activity against molds was minimal, Table 5.
(§5) Compound hits from the library screening were evaluated against baker yeast S. cerevisiae and C. albicans (ATCC 90028). The minimum inhibitory concentration (MIC) was defined as the lowest concentration inhibiting visual growth of the microorganism and this was determined in triplicate. Standard errors were typically less than 5%. MICs for synthesized compounds were determined on the following fungal isolates: Saccharomyces cerevisiae (ATCC 9763), Candida albicans (SC5314), Candida krusei (ATCC 6258), Candida glabrata (ATCC 90030), Aspergillus flavus (ATCC MYA-1005) and Aspergillus fumigatus (ATCC 13073), which were purchased from American Type Culture Collection, and C. glabrata strain Cg003, which was kindly provided by Julius Subik, Comenius University in Bratislava, Slovak Republic. Cg003 is a clinical isolate, characterized to be resistant to fluconazole and itraconazole due to overexpression of the multidrug resistance efflux pumps Cdr1p and Cdr2p^5. The fungal growth assay was performed as described in Kjellerup et al., 2017^6.

Candida glabrata Cg003 = test: Fungal growth inhibition MIC (MFC); format: cell-based; settings: Nakaseomyces glabratus, Candida glabrata Cg003 (clinical azole-resistant isolate); for MIC: RPMI-1640; for MFC: value in brackets
Text: as §4, §5

Candida krusei ATCC 6258 = test: Fungal growth inhibition MIC (MFC); format: cell-based; settings: Pichia kudriavzevii, ATCC6258; for MIC: Candida krusei ATCC 6258, RPMI-1640; for MFC: Candida krusei ATCC 6258, value in brackets
Text: as §4, §5

[2] = system: Saccharomyces cerevisiae ATCC 9763; test: Fungal growth inhibition MIC (MFC); format: cell-based; settings: ATCC9763; for MIC: Saccharomyces cerevisiae ATCC 9763, RPMI-1640; for MFC: Saccharomyces cerevisiae ATCC 9763, value in brackets
Text: as §4, §5

[3] = system: Aspergillus flavus ATCC MYA-1005; test: Mold growth inhibition; format: cell-based; settings: Aspergillus flavus ATCC MYA-1005, n=3; read-out: Fungal Growth Inhibition MIC
Text: as §4, §5

[4] = system: Aspergillus fumigatus ATCC 13073; test: Mold growth inhibition; format: cell-based; settings: ATCC13073; Aspergillus fumigatus ATCC 13073, n=3; read-out: Fungal Growth Inhibition MIC
Text: as §4, §5

T3 sequence (P04191 1-994 isoform P04191-2): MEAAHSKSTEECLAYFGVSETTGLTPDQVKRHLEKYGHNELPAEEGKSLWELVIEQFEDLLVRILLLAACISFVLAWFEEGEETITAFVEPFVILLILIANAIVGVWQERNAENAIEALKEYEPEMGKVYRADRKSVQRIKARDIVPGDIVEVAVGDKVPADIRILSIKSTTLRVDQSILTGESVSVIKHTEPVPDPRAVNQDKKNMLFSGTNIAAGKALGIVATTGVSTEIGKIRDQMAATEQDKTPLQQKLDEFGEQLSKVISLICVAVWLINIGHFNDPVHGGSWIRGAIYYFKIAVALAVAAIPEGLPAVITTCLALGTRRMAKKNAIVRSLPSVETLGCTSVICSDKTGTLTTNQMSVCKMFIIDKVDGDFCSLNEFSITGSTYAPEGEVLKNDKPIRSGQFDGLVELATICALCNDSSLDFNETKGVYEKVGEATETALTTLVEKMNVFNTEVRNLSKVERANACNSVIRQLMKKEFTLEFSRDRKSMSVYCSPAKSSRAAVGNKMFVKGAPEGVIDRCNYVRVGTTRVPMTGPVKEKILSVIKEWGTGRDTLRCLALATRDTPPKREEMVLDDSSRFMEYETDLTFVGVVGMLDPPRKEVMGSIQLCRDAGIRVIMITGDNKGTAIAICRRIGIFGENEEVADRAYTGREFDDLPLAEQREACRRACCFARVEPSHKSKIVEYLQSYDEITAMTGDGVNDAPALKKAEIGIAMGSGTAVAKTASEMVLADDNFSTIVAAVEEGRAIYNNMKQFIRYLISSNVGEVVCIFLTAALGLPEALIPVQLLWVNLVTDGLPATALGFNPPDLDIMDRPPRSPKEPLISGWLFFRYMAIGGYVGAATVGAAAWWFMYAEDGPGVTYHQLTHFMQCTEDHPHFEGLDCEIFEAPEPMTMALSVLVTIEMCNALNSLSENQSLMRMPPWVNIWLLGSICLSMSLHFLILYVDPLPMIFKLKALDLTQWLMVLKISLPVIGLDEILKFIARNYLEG
T2 sequence (P28877 whole entry): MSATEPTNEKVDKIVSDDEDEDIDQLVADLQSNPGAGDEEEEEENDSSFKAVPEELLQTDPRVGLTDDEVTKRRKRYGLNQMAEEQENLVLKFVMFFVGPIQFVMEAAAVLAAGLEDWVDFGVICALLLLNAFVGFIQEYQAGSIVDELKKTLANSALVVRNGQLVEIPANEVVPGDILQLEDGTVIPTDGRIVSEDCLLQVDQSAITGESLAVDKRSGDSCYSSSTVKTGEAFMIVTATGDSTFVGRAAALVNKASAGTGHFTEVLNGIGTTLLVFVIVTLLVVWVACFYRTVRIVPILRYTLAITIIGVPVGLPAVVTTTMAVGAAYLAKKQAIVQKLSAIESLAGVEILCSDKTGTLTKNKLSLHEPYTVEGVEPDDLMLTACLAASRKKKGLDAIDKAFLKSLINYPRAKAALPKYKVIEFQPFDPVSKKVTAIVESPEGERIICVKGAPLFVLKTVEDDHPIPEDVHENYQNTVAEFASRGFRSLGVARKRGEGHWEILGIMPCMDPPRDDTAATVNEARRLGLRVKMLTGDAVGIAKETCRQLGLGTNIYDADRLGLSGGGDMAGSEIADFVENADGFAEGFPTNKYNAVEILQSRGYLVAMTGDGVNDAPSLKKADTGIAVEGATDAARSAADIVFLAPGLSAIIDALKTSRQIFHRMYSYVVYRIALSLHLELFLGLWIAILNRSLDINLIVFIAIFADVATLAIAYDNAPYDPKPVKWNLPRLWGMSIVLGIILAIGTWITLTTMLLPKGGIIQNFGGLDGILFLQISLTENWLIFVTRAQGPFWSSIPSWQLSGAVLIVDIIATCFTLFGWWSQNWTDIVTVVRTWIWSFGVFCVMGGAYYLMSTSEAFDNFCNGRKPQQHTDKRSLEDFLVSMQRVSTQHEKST
T1 sequence (P05030 whole entry, canonical isoform): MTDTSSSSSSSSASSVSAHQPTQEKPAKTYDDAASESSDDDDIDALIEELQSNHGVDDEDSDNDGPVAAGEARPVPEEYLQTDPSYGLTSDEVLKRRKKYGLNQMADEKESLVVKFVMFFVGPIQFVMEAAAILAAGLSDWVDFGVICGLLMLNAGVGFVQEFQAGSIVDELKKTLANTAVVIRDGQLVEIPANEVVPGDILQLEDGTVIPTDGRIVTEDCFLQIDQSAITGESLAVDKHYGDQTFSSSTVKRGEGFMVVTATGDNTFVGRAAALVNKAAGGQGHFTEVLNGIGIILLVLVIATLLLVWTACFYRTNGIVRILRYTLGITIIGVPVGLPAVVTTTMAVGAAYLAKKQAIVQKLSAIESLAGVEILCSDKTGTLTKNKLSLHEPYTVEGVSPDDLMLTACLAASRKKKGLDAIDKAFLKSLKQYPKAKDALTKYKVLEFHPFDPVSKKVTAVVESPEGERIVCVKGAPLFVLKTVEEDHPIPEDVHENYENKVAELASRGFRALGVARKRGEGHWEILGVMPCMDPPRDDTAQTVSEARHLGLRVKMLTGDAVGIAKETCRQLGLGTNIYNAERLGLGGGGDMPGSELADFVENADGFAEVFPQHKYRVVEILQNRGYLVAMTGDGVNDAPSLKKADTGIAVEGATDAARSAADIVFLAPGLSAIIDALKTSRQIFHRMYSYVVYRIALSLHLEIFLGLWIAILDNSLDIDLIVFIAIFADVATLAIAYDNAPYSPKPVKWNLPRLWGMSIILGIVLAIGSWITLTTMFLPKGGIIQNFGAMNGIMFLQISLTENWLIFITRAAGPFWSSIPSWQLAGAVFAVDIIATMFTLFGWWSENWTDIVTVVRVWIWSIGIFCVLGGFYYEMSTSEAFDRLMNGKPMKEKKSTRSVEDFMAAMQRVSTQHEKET

| SMILES | IC50 (S. cerevisiae H^+-ATPase) | IC50 (C. albicans H^+-ATPase) | IC50 (Mammalian Ca^2+-ATPase) | IC50 [1] | MIC (Candida albicans SC5314) | MFC (Candida albicans SC5314) | MIC (Candida glabrata Cg003) | MFC (Candida glabrata Cg003) | MIC (Candida krusei ATCC 6258) | MFC (Candida krusei ATCC 6258) | MIC [2] | MFC [2] | MIC [3] | MIC [4] | IC50 (Mammalian Ca^2+-ATPase; pH 7, n = 3, read-out: ATP hydrolysis IC50 Mammalian Ca^2+-ATPase) |
| --- | --- | --- | --- | --- | --- | --- | --- | --- | --- | --- | --- | --- | --- | --- | --- |
| CN1CCN(CC(O)Cn2c3ccc(O)cc3c3cc(O)ccc32)CC1 (stereo not drawn) [Compound 13, 9-(2-hydroxy-3-(4-methylpiperazin-1-yl)propyl)-9H-carbazole-3,6-diol] | > 167 µM | > 167 µM | > 167 µM | > 167 µM | > 75 µM | > 75 µM | > 75 µM | > 75 µM | > 75 µM | > 75 µM | > 75 µM | > 75 µM | > 75 µM | > 75 µM |  |
| OC(CN1CCOCC1)Cn1c2ccc(Cl)cc2c2cc(Cl)ccc21 (stereo not drawn) [Compound 7, 1-(3,6-dichloro-9H-carbazol-9-yl)-3-morpholinopropan-2-ol] | 6.9 ± 1.3 µM | 2.6 ± 0.4 µM |  | 6 ± 1.3 µM | 75 µM (≈ 28.4 µg/mL) | 75 µM (≈ 28.4 µg/mL) | > 75 µM | > 75 µM | > 75 µM | > 75 µM | 24 µM (≈ 9.1 µg/mL) | 24 µM (≈ 9.1 µg/mL) | > 75 µM | > 75 µM | 19.6 ± 7.2 µM |
| CN(C)CCCn1c2ccc(Cl)cc2c2cc(Cl)ccc21 [Compound 14, 3-(3,6-dichloro-9H-carbazol-9-yl)-N,N-dimethyl-propan-1-amine] | 36.2 ± 3.1 µM | 23.3 ± 5.3 µM | 13 ± 2.1 µM | 2.1 ± 0.5 µM | 24 µM (≈ 7.71 µg/mL) | 75 µM (≈ 24.1 µg/mL) | 24 µM (≈ 7.71 µg/mL) | 75 µM (≈ 24.1 µg/mL) | 13 µM (≈ 4.18 µg/mL) | 24 µM (≈ 7.71 µg/mL) | 5.8 µM (≈ 1.86 µg/mL) | 16 µM (≈ 5.14 µg/mL) | > 75 µM | > 75 µM |  |
